Data published in US11220510B2, “Pyrrole tricyclic compounds as A2A / A2B inhibitors” (Incyte Corporation, priority 2018, dated 2022).

Key:
[1] = target: Adenosine A2A receptor (Tag-lite Adenosine A2A labeled cells) (Homo sapiens (Human), UniProt P29274); experiment: A2A Tag-lite HTRF assay (fluorescent ligand displacement); conditions: Red antagonist fluorescent ligand 12.5 nM, one-site competitive binding model, read-out: A2A_Ki
Description: Example C. A2A Tag-Lite® HTRF Assay
The final concentration of DMSO was 1%.

[2] = target: human adenosine A2B receptor (Homo sapiens (Human), UniProt P29275); experiment: Adenosine A2B Receptor Cyclic AMP GS Assay; type: cell-based; conditions: HEK-293 cells expressing human A2B; agonist NECA 12 nM; cAMP accumulation by FRET; read-out: A2B_cAMP_EC50
human adenosine A2B receptor, sequence (P29275 whole entry): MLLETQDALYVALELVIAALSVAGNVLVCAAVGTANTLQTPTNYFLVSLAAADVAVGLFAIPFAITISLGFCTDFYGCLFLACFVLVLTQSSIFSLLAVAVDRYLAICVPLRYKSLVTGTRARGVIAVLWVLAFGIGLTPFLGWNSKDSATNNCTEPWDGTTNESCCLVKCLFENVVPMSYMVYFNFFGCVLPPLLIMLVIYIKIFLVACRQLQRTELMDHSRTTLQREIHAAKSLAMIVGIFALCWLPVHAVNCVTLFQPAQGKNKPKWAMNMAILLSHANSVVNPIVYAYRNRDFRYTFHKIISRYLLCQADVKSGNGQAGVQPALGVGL
Description: Example B. Adenosine A2B Receptor Cyclic AMP GS Assay Stably transfected HEK-293 cells expressing the human adenosine A2B receptor (Perkin Elmer) were maintained in MEM culture medium with 10% FBS and 100 μg/ml Geneticin (Life Technologies). 18 to 24 hours prior to assay, geneticin was removed from culture. The cisbio cAMP-GS Dynamic kit utilizing the FRET (Fluorescence Resonance Energy Transfer) technology was used to measure cAMP accumulation in the cells. Compounds of the present disclosure at an appropriate concentration were mixed with 10000 cells/well in white 96 well half area plates (Perkin Elmer) for 30 min at room temperature gently shaking. Agonist, NECA (R&D Technologies) at 12 nM was added to each well for 60 min at room temperature gently shaking. Detection reagents, d2-labeled cAMP (acceptor) and anti-cAMP cryptate (donor) were added to each well for 60 min at RT gently shaking. Plates were read on Pherastar (BMG Labtech), fluorescence ratio 665/620 was calculated and EC50 determination was performed by fitting the curve of percent of control versus the log of the compound concentration using GraphPad Prism.

Adenosine A2A receptor (Tag-lite Adenosine A2A labeled cells), sequence (P29274 whole entry): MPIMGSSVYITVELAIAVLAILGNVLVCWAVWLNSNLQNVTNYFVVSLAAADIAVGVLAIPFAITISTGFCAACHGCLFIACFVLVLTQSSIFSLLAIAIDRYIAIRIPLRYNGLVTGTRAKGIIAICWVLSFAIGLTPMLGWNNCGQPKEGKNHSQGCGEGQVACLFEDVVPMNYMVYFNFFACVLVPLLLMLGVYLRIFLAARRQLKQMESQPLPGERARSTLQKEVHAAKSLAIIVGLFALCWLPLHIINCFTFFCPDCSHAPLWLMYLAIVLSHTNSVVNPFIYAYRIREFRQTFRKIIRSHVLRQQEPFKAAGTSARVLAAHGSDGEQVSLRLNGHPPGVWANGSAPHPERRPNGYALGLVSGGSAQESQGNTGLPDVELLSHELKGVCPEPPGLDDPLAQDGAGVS

SMILES	Ki [1] [nM]	EC50 [2] [nM]
CCCCCn1c2cc[nH]c2c(=O)n2c(C)nnc12 [Example 1, 3-Methyl-9-pentyl-6,9-dihydro-5H-pyrrolo[3,2-d][1,2,4]triazolo[4,3-a]pyrimidin-5-one]	100 to 1000	–
CCCCCn1c2cc(-c3cnn(Cc4cncc(Cl)c4)c3)[nH]c2c(=O)n2c(C)nnc12 [Example 2, 7-(1-((5-Chloropyridin-3-yl)methyl)-1H-pyrazol-4-yl)-3-methyl-9-pentyl-6,9-dihydro-5H-pyrrolo[3,2-d][1,2,4]triazolo[4,3-a]pyrimidin-5-one]	< 10	10 to 100
CCCCCn1c2cc(-c3cnn(Cc4cncc(C)c4)c3)[nH]c2c(=O)n2c(C)nnc12 [Example 3, 3-Methyl-7-(1-((5-methylpyridin-3-yl)methyl)-1H-pyrazol-4-yl)-9-pentyl-6,9-dihydro-5H-pyrrolo[3,2-d][1,2,4]triazolo[4,3-a]pyrimidin-5-one]	< 10	< 10
CCCCCn1c2cc(-c3cnn(Cc4cnc5ccsc5c4)c3)[nH]c2c(=O)n2c(C)nnc12 [Example 4, 3-Methyl-9-pentyl-7-(1-(thieno[3,2-b]pyridin-6-ylmethyl)-1H-pyrazol-4-yl)-6,9-dihydro-5H-pyrrolo[3,2-d][1,2,4]triazolo[4,3-a]pyrimidin-5-one]	< 10	< 10
CCCCCn1c2cc(-c3cnn(Cc4ccn5ccnc5c4)c3)[nH]c2c(=O)n2c(C)nnc12 [Example 5, 7-(1-(Imidazo[1,2-a]pyridin-7-ylmethyl)-1H-pyrazol-4-yl)-3-methyl-9-pentyl-6,9-dihydro-5H-pyrrolo[3,2-d][1,2,4]triazolo[4,3-a]pyrimidin-5-one]	< 10	10 to 100
CCCCCn1c2cc(-c3cnn(Cc4cnc5cccnc5c4)c3)[nH]c2c(=O)n2c(C)nnc12 [Example 6, 7-(1-((1,5-Naphthyridin-3-yl)methyl)-1H-pyrazol-4-yl)-3-methyl-9-pentyl-6,9-dihydro-5H-pyrrolo[3,2-d][1,2,4]triazolo[4,3-a]pyrimidin-5-one]	< 10	10 to 100
CCCCCn1c2cc(-c3cnn(Cc4cnc5cnn(C)c5c4)c3)[nH]c2c(=O)n2c(C)nnc12 [Example 7, 3-Methyl-7-(1-((1-methyl-1H-pyrazolo[4,3-b]pyridin-6-yl)methyl)-1H-pyrazol-4-yl)-9-pentyl-6,9-dihydro-5H-pyrrolo[3,2-d][1,2,4]triazolo[4,3-a]pyrimidin-5-one]	< 10	10 to 100
CCCCCn1c2cc(-c3cnn(Cc4cccnc4)c3)[nH]c2c(=O)n2c(C)nnc12 [Example 8, 3-Methyl-9-pentyl-7-(1-(pyridin-3-ylmethyl)-1H-pyrazol-4-yl)-6,9-dihydro-5H-pyrrolo[3,2-d][1,2,4]triazolo[4,3-a]pyrimidin-5-one]	< 10	10 to 100
CCCCCn1c2cc(-c3cnn(Cc4cncc(F)c4)c3)[nH]c2c(=O)n2c(C)nnc12 [Example 9, 7-(1-((5-Fluoropyridin-3-yl)methyl)-1H-pyrazol-4-yl)-3-methyl-9-pentyl-6,9-dihydro-5H-pyrrolo[3,2-d][1,2,4]triazolo[4,3-a]pyrimidin-5-one]	< 10	10 to 100
CCCCCn1c2cc(-c3cnn(Cc4ccccc4)c3)[nH]c2c(=O)n2c(C)nnc12 [Example 10, 7-(1-Benzyl-1H-pyrazol-4-yl)-3-methyl-9-pentyl-6,9-dihydro-5H-pyrrolo[3,2-d][1,2,4]triazolo[4,3-a]pyrimidin-5-one]	< 10	–
CCCCCn1c2cc(-c3ccc(S(=O)(=O)Nc4ccc(C)cc4)cc3)[nH]c2c(=O)n2c(C)nnc12 [Example 11, 4-(3-Methyl-5-oxo-9-pentyl-6,9-dihydro-5H-pyrrolo[3,2-d][1,2,4]triazolo[4,3-a]pyrimidin-7-yl)-N-p-tolylbenzenesulfonamide]	10 to 100	–
CCCCCn1c2cc(-c3cnn(Cc4cnc5cccnc5c4)c3)[nH]c2c(=O)n2c(C(F)(F)F)nnc12 [Example 12, 7-(1-((1,5-Naphthyridin-3-yl)methyl)-1H-pyrazol-4-yl)-9-pentyl-3-(trifluoromethyl)-6,9-dihydro-5H-pyrrolo[3,2-d][1,2,4]triazolo[4,3-a]pyrimidin-5-one]	< 10	< 10
CCCCCn1c2c(Br)c[nH]c2c(=O)n2c(C)nnc12 [Example 13, 8-Bromo-3-methyl-9-pentyl-6,9-dihydro-5H-pyrrolo[3,2-d][1,2,4]triazolo[4,3-a]pyrimidin-5-one]	10 to 100	–
CCCCCn1c2c(C)c[nH]c2c(=O)n2c(C)nnc12 [Example 14, 3,8-Dimethyl-9-pentyl-6,9-dihydro-5H-pyrrolo[3,2-d][1,2,4]triazolo[4,3-a]pyrimidin-5-one]	100 to 1000	–
CCCCCn1c2c(-c3ccccc3)c[nH]c2c(=O)n2c(C)nnc12 [Example 15, 3-Methyl-9-pentyl-8-phenyl-6,9-dihydro-5H-pyrrolo[3,2-d][1,2,4]triazolo[4,3-a]pyrimidin-5-one]	100 to 1000	–
CCCCCn1c2c(C#N)c[nH]c2c(=O)n2c(C)nnc12 [Example 16, 3-Methyl-5-oxo-9-pentyl-6,9-dihydro-5H-pyrrolo[3,2-d][1,2,4]triazolo[4,3-a]pyrimidine-8-carbonitrile]	100 to 1000	–
CCCCCn1c2c(-c3cnn(Cc4ccccc4)c3)c[nH]c2c(=O)n2c(C)nnc12 [Example 17, 8-(1-Benzyl-1H-pyrazol-4-yl)-3-methyl-9-pentyl-6,9-dihydro-5H-pyrrolo[3,2-d][1,2,4]triazolo[4,3-a]pyrimidin-5-one]	100 to 1000	–
CCCCCn1c2cc[nH]c2c(=O)n2c(C)cnc12 [Example 18, 7-Methyl-4-pentyl-1H-imidazo[1,2-a]pyrrolo[3,2-d]pyrimidin-9(4H)-one]	10 to 100	–
CCCCCn1c2cc(-c3cnn(C4CN(c5ncccn5)C4)c3)[nH]c2c(=O)n2c(C)nnc12 [Example 19, 3-Methyl-9-pentyl-7-(1-(1-(pyrimidin-2-yl)azetidin-3-yl)-1H-pyrazol-4-yl)-6,9-dihydro-5H-pyrrolo[3,2-d][1,2,4]triazolo[4,3-a]pyrimidin-5-one]	< 10	10 to 100
CCCCCn1c2cc(-c3cnn(C4CN(c5nccc(C#N)n5)C4)c3)[nH]c2c(=O)n2c(C)nnc12 [Example 20, 2-(3-(4-(3-Methyl-5-oxo-9-pentyl-6,9-dihydro-5H-pyrrolo[3,2-d][1,2,4]triazolo[4,3-a]pyrimidin-7-yl)-1H-pyrazol-1-yl)azetidin-1-yl)pyrimidine-4-carbonitrile]	< 10	10 to 100
CCCCCn1c2cc(-c3cnn(C4CN(c5nccc(N)n5)C4)c3)[nH]c2c(=O)n2c(C)nnc12 [Example 21, 7-(1-(1-(4-Aminopyrimidin-2-yl)azetidin-3-yl)-1H-pyrazol-4-yl)-3-methyl-9-pentyl-6,9-dihydro-5H-pyrrolo[3,2-d][1,2,4]triazolo[4,3-a]pyrimidin-5-one]	< 10	10 to 100
CCCCCn1c2cc(-c3cnn(C4CN(c5nccc(NCCO)n5)C4)c3)[nH]c2c(=O)n2c(C)nnc12 [Example 22, 7-(1-(1-(4-(2-Hydroxyethylamino)pyrimidin-2-yl)azetidin-3-yl)-1H-pyrazol-4-yl)-3-methyl-9-pentyl-6,9-dihydro-5H-pyrrolo[3,2-d][1,2,4]triazolo[4,3-a]pyrimidin-5-one]	< 10	10 to 100
CCCCCn1c2cc(-c3cnn(C4CN(c5nccc(NC)n5)C4)c3)[nH]c2c(=O)n2c(C)nnc12 [Example 23, 3-Methyl-7-(1-(1-(4-(methylamino)pyrimidin-2-yl)azetidin-3-yl)-1H-pyrazol-4-yl)-9-pentyl-6,9-dihydro-5H-pyrrolo[3,2-d][1,2,4]triazolo[4,3-a]pyrimidin-5-one]	< 10	10 to 100
CCCCn1c2cc(-c3cnn(C4CN(c5ncccn5)C4)c3)[nH]c2c(=O)n2c(C)nnc12 [Example 24, 9-Butyl-3-methyl-7-(1-(1-(pyrimidin-2-yl)azetidin-3-yl)-1H-pyrazol-4-yl)-6,9-dihydro-5H-pyrrolo[3,2-d][1,2,4]triazolo[4,3-a]pyrimidin-5-one]	< 10	10 to 100
CCCCn1c2cc(-c3cnn(C4CN(c5nccc(C#N)n5)C4)c3)[nH]c2c(=O)n2c(C)nnc12 [Example 25, 2-(3-(4-(9-Butyl-3-methyl-5-oxo-6,9-dihydro-5H-pyrrolo[3,2-d][1,2,4]triazolo[4,3-a]pyrimidin-7-yl)-1H-pyrazol-1-yl)azetidin-1-yl)pyrimidine-4-carbonitrile]	< 10	10 to 100
CCCCn1c2cc(-c3cnn(C4CN(c5nccc(C)n5)C4)c3)[nH]c2c(=O)n2c(C)nnc12 [Example 26, 9-Butyl-3-methyl-7-(1-(1-(4-methylpyrimidin-2-yl)azetidin-3-yl)-1H-pyrazol-4-yl)-6,9-dihydro-5H-pyrrolo[3,2-d][1,2,4]triazolo[4,3-a]pyrimidin-5-one]	< 10	10 to 100
CCCCn1c2cc(-c3cnn(C4CN(c5nccc(OC)n5)C4)c3)[nH]c2c(=O)n2c(C)nnc12 [Example 27, 9-Butyl-7-(1-(1-(4-methoxypyrimidin-2-yl)azetidin-3-yl)-1H-pyrazol-4-yl)-3-methyl-6,9-dihydro-5H-pyrrolo[3,2-d][1,2,4]triazolo[4,3-a]pyrimidin-5-one]	< 10	10 to 100
